Measurements: ChEMBL document CHEMBL1201862, “PubChem BioAssay data set” (2004)
Active and inactive are the calls of the source. Unless noted, the calls are words filed in the database; no cut-off is given here.

Experiments:
[1] = HEK-293T viability loss after treatment – luminescence, T-cell screen hits, cytotoxicity control for TCR NF-kB inhibitor project, dose response (AID 489026); format: functional, cell-based;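 further: cells exposed to compound about 14 hours before the viability readout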
HEK293 [2] = experiment: cells; settings: Homo sapiens
J774.A1 = experiment: Confirmation of image-based Screening Assay for Inhibitors of Phagocytosis. [Related pubchem assays (depositor defined):AID1029, AID1643]; format: functional, cell-based; settings: Mus musculus
HEK293 [3] = experiment: cells; settings: Homo sapiens; remark: listed apart in the source
[4] = cytotoxicity in SR immunoblastic lymphoma cells – cell-based, CellTiter-Glo ATP luminescence, 8-48 h, dry powder, mechanism study for HRAS target identification, late-stage follow-up (AID 720608); format: functional
[5] = cytotoxicity in U-251 CNS tumor cells – cell-based, Alamar Blue fluorescence, 8/24/48 h, dry powder, HRAS target identification, dose response (AID 720605); format: functional
[6] = cAMP pathway inhibition in counterscreen cell line – TR-FRET cAMP detection, counter-screen for MC4R biased antagonist project, dose response (AID 602305); format: functional, cell-based;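 further: U2OS cells stimulated with forskolin near its EC80 as the cAMP inducer; potency is for inhibition of forskolin-stimulated cAMP signaling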
Melanocortin receptor 4 = Melanocortin receptor 4 (Homo sapiens, UniProt P32245); experiment: inhibitors of MC4R cAMP signaling – cell-based, TR-FRET, biased antagonists, dose response (AID 602298); format: functional;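 further: antagonist potency against agonist-stimulated cAMP production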
Chain of Melanocortin receptor 4 (P32245 whole entry): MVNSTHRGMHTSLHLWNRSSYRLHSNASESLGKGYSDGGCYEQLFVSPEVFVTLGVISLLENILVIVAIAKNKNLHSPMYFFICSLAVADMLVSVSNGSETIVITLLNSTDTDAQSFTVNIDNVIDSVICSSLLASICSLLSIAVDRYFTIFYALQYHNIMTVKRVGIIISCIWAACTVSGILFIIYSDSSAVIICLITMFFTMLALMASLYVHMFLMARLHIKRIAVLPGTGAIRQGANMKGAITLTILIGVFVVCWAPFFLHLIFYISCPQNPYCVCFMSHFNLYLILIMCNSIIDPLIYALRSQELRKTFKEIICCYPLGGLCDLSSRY

[7] = cytotoxicity in LOX IMVI melanoma cells – cell-based, CellTiter-Glo ATP luminescence, 8/24/48 h, dry powder, HRAS target identification, dose response (AID 720602); format: functional
[8] = molecular target: T1, Replicative DNA helicase DnaB (Mycobacterium tuberculosis, UniProt P9WMR3); experiment: DnaB intein splicing inhibitors, dose response, biochemical, cell-free fluorescence (AID 449749); format: functional
T1 sequence (P9WMR3 whole entry): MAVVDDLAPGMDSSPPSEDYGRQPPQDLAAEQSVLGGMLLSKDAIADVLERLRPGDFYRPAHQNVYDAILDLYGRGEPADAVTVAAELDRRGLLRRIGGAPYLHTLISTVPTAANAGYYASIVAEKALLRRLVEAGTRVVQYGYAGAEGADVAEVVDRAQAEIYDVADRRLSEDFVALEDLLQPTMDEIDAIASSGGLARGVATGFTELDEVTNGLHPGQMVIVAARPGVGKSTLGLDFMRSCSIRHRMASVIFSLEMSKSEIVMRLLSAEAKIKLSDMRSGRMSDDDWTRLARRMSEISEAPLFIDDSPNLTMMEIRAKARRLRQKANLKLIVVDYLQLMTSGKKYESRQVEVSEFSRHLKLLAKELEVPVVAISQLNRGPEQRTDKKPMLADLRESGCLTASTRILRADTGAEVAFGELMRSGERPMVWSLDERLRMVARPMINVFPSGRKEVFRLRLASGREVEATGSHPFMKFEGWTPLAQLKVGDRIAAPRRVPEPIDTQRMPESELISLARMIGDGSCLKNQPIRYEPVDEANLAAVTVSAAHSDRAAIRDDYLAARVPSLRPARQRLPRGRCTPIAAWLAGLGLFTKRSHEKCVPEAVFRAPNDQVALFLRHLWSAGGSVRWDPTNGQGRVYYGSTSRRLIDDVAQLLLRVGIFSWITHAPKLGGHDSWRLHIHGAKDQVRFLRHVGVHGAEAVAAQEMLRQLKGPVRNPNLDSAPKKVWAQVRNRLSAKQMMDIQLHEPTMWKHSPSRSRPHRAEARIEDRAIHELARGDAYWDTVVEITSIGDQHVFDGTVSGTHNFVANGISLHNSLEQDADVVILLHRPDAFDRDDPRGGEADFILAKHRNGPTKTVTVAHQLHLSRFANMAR

[9] = cytotoxicity in mouse C2C12 myoblasts – cell-based, CellTiter-Glo ATP luminescence, 8/24/48 h, dry powder, cytotoxicity control for HRAS target identification, dose response (AID 720603); format: functional
[10] = BJeHLT cell viability loss – BJeHLT cells, dry powder, counter-screen for Ras selective lethality project, dose response (AID 493052); format: functional, cell-based; settings: Homo sapiens
INS1 = experiment: INS-1E survival protection against cytokine death – cell-based, luminescence, retest, dose response (AID 449756); format: functional; settings: Rattus norvegicus;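 further: cell death triggered by IL-1 beta plus TNF-alpha plus IFN-gamma mixture; protective hits raise ATP signal compared with cytokine alone wells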
Paired box protein Pax-8 = Paired box protein Pax-8 (Homo sapiens, UniProt Q06710); experiment: PAX8 transcriptional activity inhibition in RMG-I – RMG-I cells, luciferase, cherry-pick, dose response (AID 687027); format: functional, cell-based;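 further: luciferase reporter driven by Pax8 target thyroperoxidase promoter measured by SteadyGlo luminescence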
Chain of Paired box protein Pax-8 (Q06710 whole entry): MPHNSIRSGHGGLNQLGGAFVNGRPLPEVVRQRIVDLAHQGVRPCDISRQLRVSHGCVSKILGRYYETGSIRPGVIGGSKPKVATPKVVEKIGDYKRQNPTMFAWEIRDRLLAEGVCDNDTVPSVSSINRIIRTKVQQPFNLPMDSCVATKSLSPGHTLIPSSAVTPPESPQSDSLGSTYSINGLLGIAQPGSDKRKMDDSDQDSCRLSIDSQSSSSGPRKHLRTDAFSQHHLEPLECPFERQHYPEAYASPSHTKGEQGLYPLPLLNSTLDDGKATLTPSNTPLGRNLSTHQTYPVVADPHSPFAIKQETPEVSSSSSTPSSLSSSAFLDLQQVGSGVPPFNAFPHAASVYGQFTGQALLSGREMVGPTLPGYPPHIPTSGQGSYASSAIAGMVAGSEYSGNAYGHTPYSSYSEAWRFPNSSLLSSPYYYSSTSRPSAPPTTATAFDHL

[11] = time-course viability loss in HT-29 cells – cell-based, CellTiter-Glo, multiple timepoints, dry powder, HRas target identification project, dose response (AID 720598); format: functional
[12] = DRD BJ cell killing, Ras synthetic lethality – DRD BJ fibroblasts, HRASV12, dry powder, dose response (AID 493049); format: functional, cell-based
[13] = viability of PTEN-deleted HCT116 cells – cell-based, HCT116 PTEN knockout, dose response (AID 1047); format: functional;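 further: HCT116 colon tumor cells with PTEN knocked out; cells exposed to compound for 60 hours before readout; potency for loss of cell viability measured by luminescence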
[14] = cytotoxicity in HeLa cervical cancer cells – cell-based, CellTiter-Glo ATP luminescence, 8-48 h, dry powder, mechanism study for HRAS target identification, late-stage follow-up (AID 720609); format: functional
[15] = HRAS-V12 fibroblast viability reduction – cell-based, Alamar Blue, dry powder, Ras selective lethality project, primary screen (AID 493045); format: functional; settings: BJeLR
Fatty acid synthase [16] = molecular target: T2, Fatty acid synthase (Homo sapiens, UniProt P49327); experiment: inhibition of human FAS-TE enzyme activity – biochemical, endpoint fluorescence intensity, uHTS hits, dose response (AID 624327); format: functional;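 further: fluorescence from hydrolysis of an O-methyl fluorescein acyl ester substrate by the enzyme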
T2 sequence (P49327 whole entry): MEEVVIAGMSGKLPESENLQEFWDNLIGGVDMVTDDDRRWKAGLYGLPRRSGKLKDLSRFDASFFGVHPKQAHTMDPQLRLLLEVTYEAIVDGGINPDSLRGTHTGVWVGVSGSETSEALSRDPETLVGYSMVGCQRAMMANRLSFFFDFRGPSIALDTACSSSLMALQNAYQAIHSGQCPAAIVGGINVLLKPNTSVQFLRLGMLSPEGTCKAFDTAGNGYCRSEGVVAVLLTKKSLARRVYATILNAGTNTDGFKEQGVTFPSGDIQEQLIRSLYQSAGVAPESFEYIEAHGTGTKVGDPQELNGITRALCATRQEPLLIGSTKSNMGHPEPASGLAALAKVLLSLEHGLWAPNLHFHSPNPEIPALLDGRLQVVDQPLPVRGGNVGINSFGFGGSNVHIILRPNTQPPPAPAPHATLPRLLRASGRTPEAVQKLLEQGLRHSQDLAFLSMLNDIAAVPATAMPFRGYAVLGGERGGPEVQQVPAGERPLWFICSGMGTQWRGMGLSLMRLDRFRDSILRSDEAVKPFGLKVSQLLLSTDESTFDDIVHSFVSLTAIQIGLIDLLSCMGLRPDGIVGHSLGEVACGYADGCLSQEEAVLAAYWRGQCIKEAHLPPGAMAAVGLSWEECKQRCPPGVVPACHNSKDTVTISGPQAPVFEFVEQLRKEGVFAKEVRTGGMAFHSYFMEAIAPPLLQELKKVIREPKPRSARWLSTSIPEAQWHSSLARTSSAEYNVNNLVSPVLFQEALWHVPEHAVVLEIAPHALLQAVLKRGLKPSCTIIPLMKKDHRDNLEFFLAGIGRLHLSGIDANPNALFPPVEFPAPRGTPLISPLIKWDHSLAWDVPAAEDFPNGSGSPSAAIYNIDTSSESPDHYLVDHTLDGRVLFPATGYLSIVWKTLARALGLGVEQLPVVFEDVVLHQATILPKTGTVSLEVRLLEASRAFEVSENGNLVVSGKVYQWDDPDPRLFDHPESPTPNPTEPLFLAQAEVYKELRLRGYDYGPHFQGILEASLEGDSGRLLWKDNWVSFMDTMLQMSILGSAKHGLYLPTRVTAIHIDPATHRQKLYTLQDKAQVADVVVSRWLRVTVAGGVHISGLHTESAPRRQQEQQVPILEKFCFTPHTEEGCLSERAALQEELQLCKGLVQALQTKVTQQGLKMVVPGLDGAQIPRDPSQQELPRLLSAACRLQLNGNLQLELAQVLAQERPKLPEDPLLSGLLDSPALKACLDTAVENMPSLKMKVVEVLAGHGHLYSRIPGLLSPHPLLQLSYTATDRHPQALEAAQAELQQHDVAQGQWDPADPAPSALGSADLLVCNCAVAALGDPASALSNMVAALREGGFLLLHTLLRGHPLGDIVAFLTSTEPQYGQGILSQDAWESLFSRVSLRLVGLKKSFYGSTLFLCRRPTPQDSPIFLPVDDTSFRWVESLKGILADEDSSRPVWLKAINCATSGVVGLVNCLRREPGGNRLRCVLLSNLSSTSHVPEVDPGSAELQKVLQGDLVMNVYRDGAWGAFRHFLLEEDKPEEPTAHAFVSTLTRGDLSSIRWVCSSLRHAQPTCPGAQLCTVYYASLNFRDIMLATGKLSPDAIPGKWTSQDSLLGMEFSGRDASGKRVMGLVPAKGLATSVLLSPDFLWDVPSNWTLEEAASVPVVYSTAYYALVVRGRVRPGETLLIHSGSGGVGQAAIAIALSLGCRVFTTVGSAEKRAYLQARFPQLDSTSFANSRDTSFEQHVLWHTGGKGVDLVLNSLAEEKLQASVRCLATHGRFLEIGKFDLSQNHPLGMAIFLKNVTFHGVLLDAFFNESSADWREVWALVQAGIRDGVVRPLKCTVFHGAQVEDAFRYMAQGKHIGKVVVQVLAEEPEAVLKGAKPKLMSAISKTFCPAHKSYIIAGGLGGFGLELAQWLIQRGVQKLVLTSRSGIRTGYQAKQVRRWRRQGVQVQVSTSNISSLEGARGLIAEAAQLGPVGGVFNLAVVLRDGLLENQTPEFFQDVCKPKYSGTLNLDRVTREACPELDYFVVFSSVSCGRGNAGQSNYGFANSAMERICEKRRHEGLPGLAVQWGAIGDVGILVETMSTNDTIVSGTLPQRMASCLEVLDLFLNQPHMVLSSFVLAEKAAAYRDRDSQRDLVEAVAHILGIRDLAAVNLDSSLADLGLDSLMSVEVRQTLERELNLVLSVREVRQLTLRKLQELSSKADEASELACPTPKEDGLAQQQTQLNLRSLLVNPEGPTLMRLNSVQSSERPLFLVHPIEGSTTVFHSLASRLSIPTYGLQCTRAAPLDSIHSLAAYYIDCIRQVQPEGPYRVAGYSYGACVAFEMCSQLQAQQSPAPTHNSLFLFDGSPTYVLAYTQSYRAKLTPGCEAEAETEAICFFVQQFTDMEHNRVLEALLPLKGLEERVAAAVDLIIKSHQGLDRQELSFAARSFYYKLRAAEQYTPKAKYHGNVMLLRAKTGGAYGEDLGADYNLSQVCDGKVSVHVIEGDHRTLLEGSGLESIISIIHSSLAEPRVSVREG

[17] = general cell-killing toxicity readout – plate reader, dry powder samples, cytotoxicity control for PAX8 inhibitor project, dose response (AID 743021); format: functional, cell-based
BJ = experiment: growth inhibition of engineered Ras-driven BJ cells – cell-based, alamar blue fluorescence, cherrypicked samples, dose response (AID 2631); format: functional; settings: Homo sapiens;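 further: confirmatory dose-response assay in RAS-dependent BJ fibroblasts engineered with TERT, LT and ST, with cytotoxicity read by fluorescence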
[18] = cytotoxicity in SNB-19 cells – cell-based, CellTiter-Glo ATP luminescence, 8-48 h, dry powder, mechanism study for HRAS target identification, late-stage follow-up (AID 720611); format: functional
[19] = BJeH cell viability loss – BJeH cells, dry powder, counter-screen for Ras selective lethality project, dose response (AID 493054); format: functional, cell-based
[20] = cytotoxicity in CCRF-CEM lymphoblastic leukemia cells – cell-based, CellTiter-Glo ATP luminescence, 8/24/48 h, dry powder, HRAS target identification, dose response (AID 720607); format: functional
Protein RecA = molecular target: T3, Protein RecA (Mycobacterium tuberculosis, UniProt P9WHJ3); experiment: Fluorescence Cell-Free Homogeneous Dose Retest to Identify Inhibitors of RecA-Intein Splicing Activity. [Related pubchem assays (depositor defined):AID2097, AID2223, AID489010, AID492950]; format: functional
T3 sequence (P9WHJ3 whole entry): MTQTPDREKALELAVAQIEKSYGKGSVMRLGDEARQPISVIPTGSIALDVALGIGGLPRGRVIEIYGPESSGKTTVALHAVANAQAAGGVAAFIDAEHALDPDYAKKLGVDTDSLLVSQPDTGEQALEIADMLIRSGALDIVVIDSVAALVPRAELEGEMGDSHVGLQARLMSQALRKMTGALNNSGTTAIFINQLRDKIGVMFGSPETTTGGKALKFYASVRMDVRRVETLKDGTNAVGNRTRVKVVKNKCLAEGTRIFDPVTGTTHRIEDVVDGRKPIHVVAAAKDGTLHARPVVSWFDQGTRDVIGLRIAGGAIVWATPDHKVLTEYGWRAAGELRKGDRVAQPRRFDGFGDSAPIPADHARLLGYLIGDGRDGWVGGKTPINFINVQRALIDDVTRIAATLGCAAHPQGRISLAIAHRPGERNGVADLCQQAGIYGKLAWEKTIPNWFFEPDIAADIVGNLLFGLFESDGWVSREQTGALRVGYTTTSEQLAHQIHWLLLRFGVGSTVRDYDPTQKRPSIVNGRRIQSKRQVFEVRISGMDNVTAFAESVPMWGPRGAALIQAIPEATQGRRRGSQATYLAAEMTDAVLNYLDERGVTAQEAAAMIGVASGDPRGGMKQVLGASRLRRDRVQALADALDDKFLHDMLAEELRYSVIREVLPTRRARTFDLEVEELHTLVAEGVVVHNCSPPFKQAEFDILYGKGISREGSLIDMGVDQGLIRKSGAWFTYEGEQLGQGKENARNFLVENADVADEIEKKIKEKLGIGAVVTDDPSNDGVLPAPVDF

Fatty acid synthase [21] = molecular target: T2, Fatty acid synthase; experiment: inhibition of human FAS-TE enzyme activity – biochemical, kinetic fluorescence intensity, dose response (AID 624326); format: functional;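 further: rate of fluorescence rise from hydrolysis of a fluorogenic O-methyl fluorescein ester substrate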
[22] = cytotoxicity in primary human umbilical endothelium – cell-based, CellTiter-Glo ATP luminescence, 8/24/48 h, dry powder, cytotoxicity control for HRAS target identification, dose response (AID 720604); format: functional; settings: HUVEC
[23] = cytotoxicity in U-251 glioma cells – cell-based, CellTiter-Glo ATP luminescence, several timepoints, dry powder, mechanism study for HRAS target identification, late-stage follow-up (AID 720616); format: functional
[24] = viability of HCT116 lacking mutant beta-catenin – cell-based, human colon tumor, dose response (AID 1045); format: functional;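 further: HCT116 colon tumor cells with beta catenin knocked out; cells exposed to compound for 60 hours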

## Cc1ccc(C(=O)Nc2ncc(Cc3ccc(SC(F)F)cc3)s2)cc1
[1]
  IC50: > 80 µM (inactive)
HEK293 [2]
  EC50: > 59.7 µM (inactive)
J774.A1
  IC50: 1.75 µM (active)
HEK293 [3]
  EC50: > 59.7 µM (inactive)

## COc1ccc(N(C(=O)CCl)C(C(=O)NCCc2ccccc2)c2cccs2)cc1Cl (stereo not given)
[4]
  AC50: 0.0694 µM (active)
[5]
  AC50: 0.0572 µM (active)
[6]
  IC50: > 64.6 µM (inactive)
Melanocortin receptor 4
  IC50: > 64.6 µM (inactive)
[7]
  AC50: 0.0563 µM (active)
[8]
  AC50: 1.82 µM (active)
[9]
  AC50: 6.07 µM (active)
[10]
  AC50: 0.847 µM (active)
INS1
  AC50: 2.82 µM (active)
Paired box protein Pax-8
  AC50: 0.323 µM (active)
[11]
  AC50: 0.296 µM (active)
[12]
  AC50: 0.232 µM (active)
[13]
  EC50: 1.48 µM (active)
[14]
  AC50: 0.582 µM (active)
[15]
  AC50: 0.249 µM (active)
Fatty acid synthase [16]
  IC50: 10.2 µM (active)
[17]
  AC50: 2.16 µM (active)
BJ
  EC50: 0.167 µM (active)
[18]
  AC50: 1.18 µM (active)
[19]
  AC50: 0.76 µM (active)
[20]
  AC50: 0.133 µM (active)
Protein RecA
  EC50: 0.24 µM (active)
Fatty acid synthase [21]
  IC50: 10.6 µM (active)
[22]
  AC50: 12 µM (active)
[23]
  AC50: 0.941 µM (active)
[24]
  EC50: 0.765 µM (active)
